# In patent US9763901B2 (priority 2015, dated 2017):
# Columns and labels:
# [1] = Cytotoxicity in HCVcc assay (CytoTox-1); format: cell-based; details: human, Huh7.5 cells infected with cell culture-derived HCV (HCVcc), In vitro HCV cc assay, read-out: CC50 (concentration decreasing cell viability by 50%)
# Procedure: (§1) Huh7.5 cells are grown in Dulbecco's modified essential media (DMEM), 10% fetal bovine serum (FBS), 1% penicillin-streptomycin (pen-strep), 1% Non-essential amino acids (NEAA) in a 5% CO2 incubator at 37° C. Huh7.5 cells are seeded at 1×10^4 cells per well into 96-well plates according to Southern Research Institute standard format. Test articles are serially diluted with DMEM plus 5% FBS. The diluted compound in the amount of 50 μl is mixed with equal volume of cell culture-derived HCV (HCVcc), then applied to appropriate wells in the plate. Human interferon alpha-2b (rIFNα-2b) and/or Sofosbuvir are included as a positive control. After 72 hr incubation at 37° C., the cells are lysed for measurement of luciferase activity using Renilla Luciferase Assay System (Promega) according to manufacturer's instruction. The number of cells in each well is determined by CytoTox-1 reagent (Promega). Test articles are tested at 6 serial dilutions in triplicate to derive, if applicable, EC50 and EC90 (concentration inhibiting HCVcc infectivity by 50% and 90%, respectively), CC50 (concentration decreasing cell viability by 50%) and SI (selectivity index: CC50/EC50) values (Table 1).
# [2] = tested on: cell culture-derived HCV (HCVcc); assay: microbe, parasite or virus in culture; format: cell-based, hepatitis C virus
# Procedure: as §1
# HCV GT1B Replicon = assay: HCV replicon assay (antiviral, luciferase endpoint); format: cell-based, hepatitis C virus
# From the text: (§2) Stable HCV replicons of different genotypes may be used for anti-HCV evaluation. We use the subgenomic HCV replicons of genotype 1a (H77 strain), 1b (Conl strain), and 2a (JFH-1 strain), which are Huh7 human hepatoma cell lines that contains an HCV replicon.
# The HCV replicon antiviral evaluation assay examines the effects of compounds at six serial dilutions. Human interferon alpha-2b (rIFNα-2b) and/or Sofosbuvir are included in each run as a positive control compound.
# (§3) Briefly, the replicon cells are plated at 5,000 cells/well into 96-well plates that are dedicated for the analysis of cell numbers (cytotoxicity) or antiviral activity. On the following day, samples are diluted with assay media and added to the appropriate wells. Cells are processed 72 hours later when the cells are still sub-confluent. For the luciferase endpoint assay, HCV replicon levels are assessed as replicon-derived L uc activity. The concentration of drug that reduces cell viability is assessed by the fluorometric CytoTox-1 cell proliferation assay (Promega), (expressed as cell numbers). For the qRT-PCR/TaqMan assay, total RNA is extracted from the replicon cells using RNeasy 96 kit (Qiagen) according to the manufacturer's protocol. Real-time RTPCR/TaqMan assays are performed to measure copy numbers of the replicon RNA and cellular ribosomal RNA. Where applicable EC50 (concentration inhibiting HCV replicon by 50%), EC90 (concentration inhibiting HCV replicon by 90%), CC50 (concentration decreasing cell viability by 50%), CC90 (concentration decreasing cell viability by 90%) and SI (selectivity indices: CC50/EC50 and CC90/EC90) values are derived.
# [3] = Cytotoxicity in HCV replicon cells (CytoTox-1); format: cell-based; details: human, Huh7 hepatoma cells containing a subgenomic HCV replicon, In vitro HCV replicon assay, post infection, read-out: CC50 (concentration decreasing cell viability by 50%)
# Procedure: as §2
# as §3, with “Where applicable EC50 (concentration inhibiting HCV replicon by 50%), EC90 (concentration inhibiting HCV replicon by 90%), CC50 (concentration decreasing cell viability by 50%), CC90 (concentration decreasing cell viability by 90%) and SI (selectivity indices: CC50/EC50 and CC90/EC90) values are derived.” left out
compound,measurement,setting,value
CCCCOc1ccc(CC(=O)NO)cc1 [Bufexamac],CC50 at 72 h,[1],100 µM
same,EC50,"[2]; Hepatitis C virus, Huh7.5, 72 h, read-out: EC50 (concentration inhibiting HCVcc infectivity by 50%)",10.2 µM
same,Selectivity index (CC50/EC50),[2]; In vitro HCV cc assay,9.80
same,anti-hepatitis C activity (in words),[2]; hepatitis C viral infectivity assay,significant anti-hepatitis C activity
same,anti-hepatitis C activity (in words),HCV GT1B Replicon; HCV replicon assay,significant anti-hepatitis C activity
same,EC50,"HCV GT1B Replicon; Hepatitis C virus, GT1B, 72 h, read-out: EC50 (concentration inhibiting HCV replicon by 50%)",11.3 µM
same,Selectivity index (CC50/EC50),HCV GT1B Replicon; In vitro HCV replicon assay,>8.85
same,CC50 at 72 h,[3],> 100 µM
